Experimental data: patent US10752612B2, “PLK4 inhibitors” (LUDWIG INSTITUTE FOR CANCER RESEARCH LTD, priority 2015, dated 2020)

Biological target: T1, human Plk4 kinase domain (aa 2-275) (Homo sapiens, UniProt O00444)
T1 construct: purified 6×His-tagged human Plk4 kinase domain (aa 2-275); 6xHis; made in house; host or cells: E. coli
T1 sequence (O00444 2-275): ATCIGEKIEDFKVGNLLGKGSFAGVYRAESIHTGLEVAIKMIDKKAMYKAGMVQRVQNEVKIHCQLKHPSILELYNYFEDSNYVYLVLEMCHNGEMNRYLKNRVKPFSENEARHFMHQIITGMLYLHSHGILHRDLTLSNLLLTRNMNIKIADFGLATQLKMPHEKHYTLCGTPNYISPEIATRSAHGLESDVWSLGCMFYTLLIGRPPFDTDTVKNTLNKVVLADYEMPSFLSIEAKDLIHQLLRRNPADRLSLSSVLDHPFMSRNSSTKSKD
Assay: Plk4 kinase assay (ADP-Glo)
Assay type: biochemical
Conditions: Table 1
How it was run: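 Enzyme at 2.5-10 nM final, pH 8.0, reacted 4-16 hours at 25° C; ADP generation read by ADP-Glo luminescence. Ki derived from IC50 by Cheng-Prusoff or, for tight binders, Copeland formalism.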

Row | SMILES | IC50 [nM]
1 | COc1c(Nc2cc(C)[nH]n2)nc(Sc2ccc(S(=O)(=O)Cc3cccc(C(N)=O)c3)cc2)nc1N1CCN(CCN(C)C)CC1 | < 1000
2 | Cc1cc(Nc2nc(Sc3ccc(NC(=O)C4CCCC4)cc3)nc(N3CCOCC3)c2C)n[nH]1 | < 1000
3 | COc1c(Nc2cc(C)[nH]n2)nc(Sc2ccc(S(=O)(=O)C(C)(C)c3cccc([N+](=O)[O-])c3F)cc2F)nc1N1CC[C@H](NC(C)=O)C1 | < 1000
4 | COc1c(CS(=O)(=O)c2ccc(Sc3nc(Nc4cc(C)[nH]n4)c(OC)c(N4CCN(CCN(C)C)CC4)n3)cc2)cccc1[N+](=O)[O-] | < 1000
5 | CC(=O)Nc1ccc(Sc2nc(Nc3cc(C)[nH]n3)c(C)c(N3CCC(C(C)=O)CC3)n2)cc1 | < 1000
6 | COc1c(Nc2cc(C)[nH]n2)nc(Sc2ccc(NC(C)=O)cc2)nc1N1CCNCC1 | < 1000
7 | Cc1cc(Nc2nc(Sc3ccc(NC(=O)C4CCCC4)cc3)nc(N(C)C)c2C)n[nH]1 | < 1000
8 | CCCC(=O)Nc1ccc(Sc2nc(Nc3cc(C)[nH]n3)c(C)c(N3CCN(C)CC3)n2)cc1 | < 1000
9 | COc1c(Nc2cc(C)[nH]n2)nc(Sc2ccc(S(=O)(=O)Cc3cccc(F)c3)cc2)nc1N1CCN(CCN(C)C)CC1 | < 1000
10 | COc1c(Nc2cc(C)[nH]n2)nc(Sc2ccc(NC(=O)C3CC3)cc2)nc1N1CCOCC1 | < 1000
11 | CCOc1c(Nc2cc(C)[nH]n2)nc(Sc2ccc(NC(=O)C3CC3)cc2)nc1N1CCNCC1 [drawing 126] | 100 to 1000
12 | CC(=O)Nc1ccc(Sc2nc(Nc3cc(C)[nH]n3)c(C)c(N3CCN(CCN4CCCCC4)CC3)n2)cc1 | < 1000
13 | CCOc1c(Nc2cc(C)[nH]n2)nc(Sc2ccc(NC(=O)C3CCCC3)cc2)nc1N1CCN(C(C)=O)CC1 | 100 to 1000

Other lines, results leading:

Row | IC50 [nM] | SMILES
14 | 100 to 1000 | COc1c(Nc2cc(C)[nH]n2)nc(Sc2ccc(NC(=O)C3CCCC3)cc2)nc1N1CCCCC1
15 | > 1000 | CNC(=O)Cc1cc(Nc2nc(SC)nc(N3CCN(CCN(C)C)CC3)c2OC)n[nH]1
16 | < 1000 | COc1c(Nc2cc(C)[nH]n2)nc(Sc2ccc(S(=O)(=O)Cc3cccc([N+](=O)[O-])c3)cc2F)nc1N1CCOCC1
17 | > 1000 | COc1c(Nc2cc(CC(=O)Nc3cccc(F)c3)[nH]n2)nc(SC)nc1N1CCN(CCN(C)C)CC1
18 | < 1000 | COc1c(Nc2cc(C)[nH]n2)nc(Sc2ccc(NC(C)=O)nc2)nc1N1CCOCC1
19 | < 1000 | COc1c(Nc2cc(C)[nH]n2)nc(Sc2ccc(NS(C)(=O)=O)cc2)nc1N1CCN(CCN(C)C)CC1
20 | < 1000 | COc1c(Nc2cc(C)[nH]n2)nc(Sc2ccc(S(=O)(=O)C(C)(C)c3c(F)c(F)cc(F)c3F)cc2F)nc1N1CCC(CC(=O)N(C)C)CC1
21 | < 1000 | CCN(CC)CCN1CCN(c2nc(Sc3ccc(NC(C)=O)cc3)nc(Nc3cc(C)[nH]n3)c2OC)CC1
22 | < 1000 | COc1c(Nc2cc(C)[nH]n2)nc(Sc2ccc(S(=O)(=O)Cc3cccc([N+](=O)[O-])c3)cc2)nc1N1CCN(CCN(C)C)CC1
23 | < 1000 | CNc1nc(Sc2ccc(NC(=O)C3CC3)cc2)nc(Nc2cc(C)[nH]n2)c1C
24 | < 1000 | COc1c(Nc2cc(C)[nH]n2)nc(Sc2ccc(NC(=O)C3CC3)cc2)nc1N1CCN(CC2CC2)CC1
25 | < 1000 | COc1c(Nc2cc(C)[nH]n2)nc(Sc2ccc(S(=O)(=O)Cc3cccc([N+](=O)[O-])c3F)cc2F)nc1N1CCN(CCN(C)C)CC1
26 | < 1000 | COc1c(Nc2cc(C)[nH]n2)nc(Sc2ccc(S(=O)(=O)Cc3cccc(OCc4ccccc4)c3)cc2)nc1N1CCN(CCN(C)C)CC1
27 | < 1000 | COc1c(Nc2cc(C)[nH]n2)nc(Sc2ccc(NC(C)=O)cc2)nc1N1CCOC[C@H]1C
28 | 100 to 1000 | CCN(C)c1nc(Sc2ccc(NC(=O)C3CCCC3)cc2)nc(Nc2cc(C)[nH]n2)c1OC
29 | > 1000 | CCc1c(C)nc(Sc2ccc(NC(=O)C3CC3)cc2)nc1Nc1cc(C)[nH]n1
30 | < 1000 | COc1c(Nc2cc(C)[nH]n2)nc(Sc2ccc(NC(=O)C3CC3)cc2)nc1N1CCN(C(=O)CN(C)C)CC1
31 | < 1000 | CC(=O)Nc1ccc(Sc2nc(Nc3cc(C)[nH]n3)c(C)c(N(C)C)n2)cc1
32 | < 1000 | CC(=O)Nc1ccc(Sc2nc(Nc3cc(C)[nH]n3)c(C)c(N3CC=C(F)CC3)n2)cc1
